Bounds are passed on as bounds.

Assay [1] relates to HBV in primary human hepatocytes (PHH). Nature of the assay: Cryopreserved primary human hepatocytes (PHH) HBV infection assay. In kind it is cell-based. The settings on record: Hepatitis B virus, Hepatocyte, 216 h, HBV-infected cryopreserved PHH, 9 days post-compound treatment, extracellular HBsAg by CLIA; read-out: HBsAg IC50. The procedure: This assay is used to confirm the anti-HBV effect of the compounds in HBV PHH infection assay. Cryopreserved PHH (BioreclamationIVT, Lot YJM) was thawed at 37° C. and gently transferred into pre-warmed InVitroGRO HT medium (BioreclamationIVT, Cat. S03317). The mixture was centrifuged at 70 relative centrifugal force (RCF) for 3 minutes at RT, and the supernatant was discarded. Pre-warmed InVitroGRO CP medium (BioreclamationIVT, Cat #S03316) was added to the cell pellet to gently re-suspend cells. The cells were seeded at the density of 5.8×10^4 cells per well to collagen I coated 96-well plate (Gibco, Cat. A1142803) with the InVitroGRO CP medium. All plates were incubated at 37° C. with 5% CO2 and 85% humidity.
At 20 hours after plating, the medium was changed to PHH culture medium (Dulbecco's Modified Eagle Medium (DMEM)/F12 (1:1) (Gibco, Cat. 11320-033), 10% fetal bovine serum (Gibco Cat. 10099141), 100 U/mL penicillin, 100 μg/mL streptomycin (Gibco, Cat. 151401-122), 5 ng/mL human epidermal growth factor (Invitrogen Cat. PHG0311L), 20 ng/mL dexamethasone (Sigma, Cat. D4902) and 250 ng/mL human recombinant insulin (Gibco, Cat. 12585-014)). And the cells were incubated at 37° C. with 5% CO2 and 85% humidity for 4 hours. The medium was then changed to pre-warmed PHH culture medium containing 4% polyethylene glycol (PEG) MW8000 (Sigma, Cat. P1458-50ML) and 1% DMSO (Sigma, Cat. D2650). 5.8×10^6 genomic equivalents of HBV were added into the medium.
At 24 hours post-infection, the cells were gently washed with PBS and refreshed with PHH culture medium supplemented with 1% DMSO, and 0.25 mg/mL Matrix gel (Corning, Cat. 356237) at 200 μL per well. All plates were immediately placed in at 37° C. CO2 incubator.
24 hours later, serial dilutions of compounds made with DMSO were further diluted with the same culture medium (PHH culture medium supplemented with 1% DMSO and 0.25 mg/mL Matrix gel as described above) before they were added to the cells to reach desired final compound concentrations and 1% DMSO concentration. The medium containing the compounds were refreshed every three days.
At 9 days post-compound treatment, extracellular HBsAg level were measured with Chemiluminescence Immuno Assay (CLIA) kit (Autobio, HBsAg Quantitative CLIA). Extracellular HBV DNA was extracted by MagNA Pure 96 system (Roche) and then determined by quantitative PCR with the following primers and probe: […]
HBsAg IC50 and HBV DNA IC50 values were derived from the dose-response curve using 4 parameter logistic curve fit method. The compounds of formula (I) have HBsAg IC50<20 μM, particularly <1 μM; and HBV DNA IC50<50 μM. Test results of the compounds of this invention as well as the reference compounds in Cryopreserved PHH assay are given in Table 2 and Table 3.

The subject of assay [2] is HBeAg level (surrogate marker for cccDNA) in HepDES19 cells. Nature of the assay: Engineered HepDES19 primary screen assay (HBeAg as surrogate marker for cccDNA). In kind it is cell-based, HBV. The settings on record: Hepatitis B virus, HepDES19, 120 h, read-out: IC50 (HBeAg) in HepDES19 primary screen assay, HepDES19 cells, 5 days incubation with compound, HBeAg by ELISA. In a few lines: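 HepDES19 cells were induced by Tet withdrawal for 8 days, then exposed to half-log compound dilutions (1% DMSO) for 5 days at 37° C. HBeAg, a cccDNA surrogate, was measured by ELISA; viability by CCK-8. IC50 from 4-parameter logistic fit.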
A general note: ELISA stands for enzyme-linked immunosorbent assay.

By IC50 is commonly meant the concentration that inhibits the measured activity by half. As for `O=c1cc(-c2ccc(OCCO[C@H]3C[C@@H](C(=O)O)C3)c(C3CC3)c2)oc2c(Cl)cccc12` [Example 45, Cis-3-[2-[4-(8-chloro-4-oxo-chromen-2-yl)-2-cyclopropyl-phenoxy]ethoxy]cyclobutanecarboxylic acid], the IC50 in assay [1] was 0.53 µM; in assay [2], 13.2 µM.
In the case of `N#Cc1cc(-c2cc(=O)c3cccc(Cl)c3o2)ccc1OCCOC1CC(C(=O)O)C1` (stereo not shown) [Example 46, 3-[2-[4-(8-chloro-4-oxo-chromen-2-yl)-2-cyano-phenoxy]ethoxy]cyclobutanecarboxylic acid], the values for the IC50 in assay [1] and in assay [2] were 0.13 µM and 16 µM, respectively.
Turning to `Cc1cc(-c2cc(=O)c3cccc(Cl)c3o2)ccc1OCCOC1CC(C(=O)O)C1` (stereo not shown) [Example 47, 3-[2-[4-(8-chloro-4-oxo-chromen-2-yl)-2-methyl-phenoxy]ethoxy]cyclobutanecarboxylic acid], the concentration for half-maximal inhibition (IC50) in assay [1] was determined as 0.24 µM; in assay [2] it was 0.04 µM.
The like results for `COc1cc(OCCOC2CC(C(=O)O)C2)ccc1-c1cc(=O)c2cccc(Cl)c2o1` (stereo not shown) [Example 50, 3-[2-[4-(8-chloro-4-oxo-chromen-2-yl)-3-methoxy-phenoxy]ethoxy]cyclobutanecarboxylic acid] were, in that order, 10.2 µM and 1.78 µM.
Turning to `CCOc1cc(OCCOC2CC(C(=O)O)C2)ccc1-c1cc(=O)c2cccc(Cl)c2o1` (stereo not shown) [Example 51, 3-[2-[4-(8-chloro-4-oxo-chromen-2-yl)-3-ethoxy-phenoxy]ethoxy]cyclobutanecarboxylic acid], the IC50 is 0.94 µM in assay [1] and 0.86 µM in assay [2].
The like results for `O=C(O)C1CC(OCCOc2ccc(-c3oc4c(Cl)cccc4c(=O)c3Cl)cc2)C1` (stereo not shown) [Example 53, 3-[2-[4-(3,8-dichloro-4-oxo-chromen-2-yl)phenoxy]ethoxy]cyclobutanecarboxylic acid] were, in that order, 4.01 µM and 22 µM.
As for `O=c1c(O)c(-c2ccc(OCCO[C@H]3C[C@@H](C(=O)O)C3)cc2)oc2c(Cl)cccc12` [Example 55, Cis-3-[2-[4-(8-chloro-3-hydroxy-4-oxo-chromen-2-yl)phenoxy]ethoxy]cyclobutanecarboxylic acid], the IC50 in assay [1] amounted to 9.5 µM; in assay [2], 0.12 µM.
`O=C(O)C1CC(OCCOc2ccc(-c3cc(=O)c4cccc(Cl)c4s3)cc2)C1` (stereo not shown) [Example 57, 3-[2-[4-(8-chloro-4-oxo-thiochromen-2-yl)phenoxy]ethoxy]cyclobutanecarboxylic acid]: the IC50 in assay [1] stood at 0.14 µM; in assay [2], 0.09 µM.
The like results for `O=C(O)COCCOc1ccc(-c2cc(=O)c3cccc(Cl)c3s2)cc1` [Example 58, 2-[2-[4-(8-chloro-4-oxo-thiochromen-2-yl)phenoxy]ethoxy]acetic acid] were, in that order, 0.57 µM and 0.52 µM.
As for `O=C(O)C1CC(OCCOc2ccc(-c3oc4c(Cl)cc(F)cc4c(=O)c3OC(F)(F)F)cc2)C1` (stereo not shown) [Example 63, 3-[2-[4-[8-chloro-6-fluoro-4-oxo-3-(trifluoromethoxy)chromen-2-yl]phenoxy]ethoxy]cyclobutanecarboxylic acid], the IC50 in assay [1] stood at 5.36 µM; in assay [2], 1.81 µM.
The like results for `O=C(O)C1CC(OCCOc2ccc(-c3cc(=O)c4cc(C5CC5)cc(Cl)c4o3)cc2)C1` (stereo not shown) [Example 67, 3-[2-[4-(8-chloro-6-cyclopropyl-4-oxo-chromen-2-yl)phenoxy]ethoxy]cyclobutanecarboxylic acid] were, in that order, 2.77 µM and 14.1 µM.
Take `O=C(O)C1CC(OCCOc2ccc(-c3cc(=O)c4ccc(C(F)(F)F)c(Cl)c4o3)cc2)C1` (stereo not shown) [Example 69, 3-[2-[4-[8-chloro-4-oxo-7-(trifluoromethyl)chromen-2-yl]phenoxy]ethoxy]cyclobutanecarboxylic acid]: the IC50 in assay [1] was 2.01 µM; in assay [2] it was 10.7 µM.
Take `Cc1cc(-c2cc(=O)c3ccc(C(F)(F)F)c(Cl)c3o2)ccc1OCCOC1CC(C(=O)O)C1` (stereo not shown) [Example 72, 3-[2-[4-[8-chloro-4-oxo-7-(trifluoromethyl)chromen-2-yl]-2-methyl-phenoxy]ethoxy]cyclobutanecarboxylic acid]: the values for the IC50 in assay [1] and in assay [2] were 7.41 µM and 14.4 µM, respectively.
The like results for `O=c1cc(-c2ccc(OCCO[C@H]3C[C@@H](C(=O)O)C3)c(Cl)c2)oc2c(Cl)c(C(F)(F)F)ccc12` [Example 73, Cis-3-[2-[2-chloro-4-[8-chloro-4-oxo-7-(trifluoromethyl)chromen-2-yl]phenoxy]ethoxy]cyclobutanecarboxylic acid] were, in that order, 6.77 µM and 15.4 µM.
As to `COc1ccc(-c2cc(=O)c3cc(OC)ccc3o2)cc1` [Example F-1, 6,4′-dimethoxyflavone, reference compound], the results for the IC50 in assay [1] and in assay [2] were 61.7 µM and above 50 µM, respectively.
Turning to `COc1ccc(-c2cc(=O)c3ccccc3o2)cc1` [Example F-2, 4′-methoxyflavone, reference compound], the figures for the IC50 in assay [1] and in assay [2] were 46.5 µM and 16.3 µM, respectively.
`COc1ccc2c(=O)c(-c3ccc(C(=O)O)cc3)coc2c1` [Example F-3, 4-(7-methoxy-4-oxo-chromen-3-yl)benzoic acid, reference compound]: the IC50 was above 100 µM in assay [1] and above 50 µM in assay [2].
